In US10681909B2, “Herbicidal triazoles” (FMC Corporation, priority 2014, dated 2020):

Key:
speedwell = assay: Test D postemergence; type: in vivo, Veronica persica; conditions: scale 0 to 100
Text: (§1) Seeds of plant species selected from bluegrass (annual bluegrass, Poa annua), blackgrass (Alopecurus myosuroides), canarygrass (Phalaris minor), chickweed (common chickweed, Stellaria media), galium (catchweed bedstraw, Galium aparine), bromegrass, down (downy bromegrass, Bromus tectorum), Russian thistle (Salsola kali), field poppy (Papaver rhoeas), field violet (Viola arvensis), foxtail, green (green foxtail, Setaria viridis), deadnettle (henbit deadnettle, Lamium amplexicaule), ryegrass, Ital. (Italian ryegrass, Lolium multiflorum), kochia (Kochia scoparia), lambsquarters (Chenopodium album), oilseed rape (Brassica napus), pigweed (Amaranthus retroflexus), chamomile (scentless chamomile, Matricaria inodora), speedwell (bird's-eye speedwell, Veronica persica), barley, spring (spring barley, Hordeum vulgare), wheat, spring (spring wheat, Triticum aestivum), buckwheat, wild (wild buckwheat, Polygonum convolvulus), wild mustard (Sinapis arvensis), oat, wild (wild oat, Avena fatua), radish, wild (wild radish, Raphanus raphanistrum), […]), barley, winter (winter barley, Hordeum vulgare), and wheat, winter (winter wheat, Triticum aestivum) were planted into a silt loam soil and treated preemergence with test chemicals formulated in a non-phytotoxic solvent mixture which included a surfactant. At the same time, these species were planted in pots containing Sunshine Redi-Earth® planting medium comprising spaghnum peat moss, vermiculite, starter nutrients and dolomitic limestone and treated with postemergence applications of the test chemicals formulated in the same manner. Plants ranged in height from 2 to 18 cm (1- to 4-leaf stage). Treated plants and controls were maintained in a controlled growth environment for 14 to 21 d after which time all species were compared to controls and visually evaluated. […] A dash (-) response means no test result.

buckwheat, wild = assay: Test D preemergence; type: in vivo, Polygonum convolvulus; conditions: for Plant response rating: Buckwheat, Wild: scale 0 to 100
Text: as §1

oilseed rape [1] = assay: Test D preemergence; type: in vivo, Brassica napus; conditions: for Plant response rating: Oilseed Rape: scale 0 to 100
Text: as §1

canarygrass = assay: Test D preemergence; type: in vivo, Phalaris minor; conditions: for Plant response rating: Canarygrass: scale 0 to 100
Text: as §1

oat, wild = assay: Test D postemergence; type: in vivo, Avena fatua; conditions: scale 0 to 100
Text: as §1

bromegrass, down = assay: Test D preemergence; type: in vivo, Bromus tectorum; conditions: for Plant response rating: Bromegrass, Down: scale 0 to 100
Text: as §1

galium = assay: Test D preemergence; type: in vivo, Galium aparine; conditions: for Plant response rating: Galium: scale 0 to 100
Text: as §1

barley, spring = assay: Test D postemergence; type: in vivo, Hordeum vulgare; conditions: scale 0 to 100
Text: as §1

barley, winter = assay: Test D postemergence; type: in vivo, Hordeum vulgare; conditions: scale 0 to 100
Text: as §1

radish, wild = assay: Test D preemergence; type: in vivo, Raphanus raphanistrum; conditions: scale 0 to 100
Text: as §1

corn [2] = assay: Test A preemergence; type: in vivo, Zea mays; conditions: Zea mays, pre-emergence, 240 h, 0 to 100 scale (0 no effect, 100 complete control); for Corn plant response rating (crop injury, 0 = no effect, 100 = complete kill) at 125 g/ha: 125 g ai/ha; for Corn plant response rating (crop injury, 0 = no effect, 100 = complete kill) at 500 g/ha: 500 g ai/ha, approx. 10 d
How it was run: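 Plant seeds in loam soil blended with sand, then apply test chemical preemergence as a directed soil spray; in parallel, spray potted seedlings (one- to two-leaf, 2 to 10 cm) postemergence. Both treatments use a non-phytotoxic solvent mixture with surfactant.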

corn [3] = assay: Test C preemergence; type: in vivo, Zea mays; conditions: for Plant response rating (scale of 0 to 100 where 0 is no effect and 100 is complete control): Corn, preemergence; for Corn plant response rating (0 to 100): Preemergence, visual rating after 13 to 15 d
Text: (§2) Seeds of plant species selected from blackgrass (Alopecurus myosuroides), ryegrass, Italian (Italian ryegrass, Lolium multiflorum), wheat (winter wheat, Triticum aestivum), galium (catchweed bedstraw, Galium aparine), corn (Zea mays), crabgrass, large (large crabgrass, Digitaria sanguinalis), foxtail, giant, (giant foxtail, Setaria faberii), johnsongrass (Sorghum halepense), lambsquarters (Chenopodium album), morningglory (Ipomoea coccinea), nutsedge, yellow (yellow nutsedge, Cyperus esculentus), pigweed (Amaranthus retroflexus), ragweed (common ragweed, Ambrosia elatior), soybean (Glycine max), barnyardgrass (Echinochloa crus-galli), oilseed rape (Brassica napus), waterhemp (common waterhemp, Amaranthus rudis), and velvetleaf (Abutilon theophrasti) were planted into a blend of loam soil and sand and treated preemergence with test chemicals formulated in a non-phytotoxic solvent mixture which included a surfactant. At the same time, plants selected from these crop and weed species and also chickweed (common chickweed, Stellaria media), oat, wild (wild oat, Avena fatua), and kochia (Kochia scoparia), were planted in pots containing Sunshine Redi-Earth® planting medium comprising spaghnum peat moss, vermiculite, starter nutrients and dolomitic limestone and treated with postemergence applications of test chemicals formulated in the same manner. Plants ranged in height from 2 to 18 cm (1- to 4-leaf stage) for postemergence treatments. […] A dash (-) response means no test result.

lambsquarters = assay: Test C preemergence; type: in vivo, Chenopodium album; conditions: for Plant response rating (scale of 0 to 100 where 0 is no effect and 100 is complete control): Lambsquarters, preemergence; for Lambsquarters plant response rating (0 to 100): Preemergence, visual rating after 13 to 15 d
Text: as §2

oilseed rape [4] = assay: Test C preemergence; type: in vivo, Brassica napus; conditions: for Plant response rating (scale of 0 to 100 where 0 is no effect and 100 is complete control): Oilseed Rape, preemergence; for Oilseed Rape plant response rating (0 to 100): Preemergence, visual rating after 13 to 15 d
Text: as §2

[5] = 16 g ai/ha, 0 is no effect, 100 is complete control

## COc1nc(-c2ccc(Cl)cc2)nn1Cc1ccnc(C(F)(F)F)c1 [Compound 28]
speedwell; 16 g ai/ha
  Plant response rating: Speedwell: 75
speedwell; 31 g ai/ha
  Plant response rating: Speedwell: 75
speedwell; 62 g ai/ha
  Plant response rating: Speedwell: 85
speedwell; 125 g ai/ha
  Plant response rating: Speedwell: 80
buckwheat, wild; [5]
  Plant response rating (0 to 100), Buckwheat, Wild: 60
buckwheat, wild; 31 g ai/ha
  Plant response rating: Buckwheat, Wild: 65
buckwheat, wild; 62 g ai/ha
  Plant response rating: Buckwheat, Wild: 75
buckwheat, wild; 125 g ai/ha
  Plant response rating: Buckwheat, Wild: 95
Oilseed rape [1]; [5]
  Plant response rating (0 to 100), Oilseed Rape: 10
Oilseed rape [1]; 62 g ai/ha
  Plant response rating: Oilseed Rape: 15
Oilseed rape [1]; 125 g ai/ha
  Plant response rating: Oilseed Rape: 15
canarygrass; [5]
  Plant response rating (0 to 100), Canarygrass: 10
canarygrass; 31 g ai/ha
  Plant response rating: Canarygrass: 40
canarygrass; 62 g ai/ha
  Plant response rating: Canarygrass: 60
canarygrass; 125 g ai/ha
  Plant response rating: Canarygrass: 65
oat, wild; 16 g ai/ha
  Plant response rating: Oat, Wild: 30
oat, wild; 31 g ai/ha
  Plant response rating: Oat, Wild: 40
oat, wild; 62 g ai/ha
  Plant response rating: Oat, Wild: 45
oat, wild; 125 g ai/ha
  Plant response rating: Oat, Wild: 50
bromegrass, down; [5]
  Plant response rating (0 to 100), Bromegrass, Down: 35
bromegrass, down; 31 g ai/ha
  Plant response rating: Bromegrass, Down: 40
bromegrass, down; 62 g ai/ha
  Plant response rating: Bromegrass, Down: 45
bromegrass, down; 125 g ai/ha
  Plant response rating: Bromegrass, Down: 45
galium; [5]
  Plant response rating (0 to 100), Galium: 65
galium; 62 g ai/ha
  Plant response rating: Galium: 75
galium; 125 g ai/ha
  Plant response rating: Galium: 80
barley, spring; 16 g ai/ha
  Plant response rating: Barley, Spring: 15
barley, spring; 31 g ai/ha
  Plant response rating: Barley, Spring: 20
barley, spring; 62 g ai/ha
  Plant response rating: Barley, Spring: 20
barley, spring; 125 g ai/ha
  Plant response rating: Barley, Spring: 25
barley, winter; 16 g ai/ha
  Plant response rating: Barley, Winter: 10
barley, winter; 31 g ai/ha
  Plant response rating: Barley, Winter: 15
barley, winter; 62 g ai/ha
  Plant response rating: Barley, Winter: 20
barley, winter; 125 g ai/ha
  Plant response rating: Barley, Winter: 25
radish, wild; 62 g ai/ha
  Plant response rating: Radish, Wild: 60
radish, wild; 125 g ai/ha
  Plant response rating: Radish, Wild: 80

## CCn1nc(-c2ccc(F)cc2)nc1C(O)c1ccnc(C(F)(F)F)c1 (stereo not drawn) [Compound 15, α-[1-Ethyl-3-(4-fluorophenyl)-1H-1,2,4-triazol-5-yl]-2-(trifluoromethyl)-4-pyridinemethanol]
Corn [2]
  Corn plant response rating (crop injury, 0 = no effect, 100 = complete kill) at 125 g/ha: 0%
  Corn plant response rating (crop injury, 0 = no effect, 100 = complete kill) at 500 g/ha: 0%

## COc1nc(-c2ccc(F)cc2)nn1Cc1ccnc(C(F)(F)F)c1 [Compound 9, 4-[[3-(4-fluorophenyl)-5-methoxy-1H-1,2,4-triazol-1-yl]methyl]-2-(trifluoromethyl)pyridine]
Corn [3]; 125 g ai/ha
  Plant response rating (scale of 0 to 100 where 0 is no effect and 100 is complete control): 25
Corn [3]; 250 g ai/ha
  Plant response rating (scale of 0 to 100 where 0 is no effect and 100 is complete control): 55
Corn [3]; 31 g ai/ha
  Corn plant response rating (0 to 100): 0
Corn [3]; 62 g ai/ha
  Corn plant response rating (0 to 100): 5
Corn [2]
  Corn plant response rating (crop injury, 0 = no effect, 100 = complete kill) at 125 g/ha: 0%
  Corn plant response rating (crop injury, 0 = no effect, 100 = complete kill) at 500 g/ha: 40%
lambsquarters; 125 g ai/ha
  Plant response rating (scale of 0 to 100 where 0 is no effect and 100 is complete control): 98
lambsquarters; 250 g ai/ha
  Plant response rating (scale of 0 to 100 where 0 is no effect and 100 is complete control): 98
lambsquarters; 31 g ai/ha
  Lambsquarters plant response rating (0 to 100): 70
lambsquarters; 62 g ai/ha
  Lambsquarters plant response rating (0 to 100): 85
Oilseed rape [4]; 125 g ai/ha
  Plant response rating (scale of 0 to 100 where 0 is no effect and 100 is complete control): 95
Oilseed rape [4]; 250 g ai/ha
  Plant response rating (scale of 0 to 100 where 0 is no effect and 100 is complete control): 100
Oilseed rape [4]; 31 g ai/ha
  Oilseed Rape plant response rating (0 to 100): 0
Oilseed rape [4]; 62 g ai/ha
  Oilseed Rape plant response rating (0 to 100): 60

## Cn1nc(-c2ccc(F)cc2)nc1C(O)c1ccnc(C(F)(F)F)c1 (stereo not drawn) [Compound 14, α-[3-(4-fluorophenyl)-1-methyl-1H-1,2,4-triazol-5-yl]-2-(trifluoromethyl)-4-pyridinemethanol]
Corn [2]
  Corn plant response rating (crop injury, 0 = no effect, 100 = complete kill) at 125 g/ha: 0%
  Corn plant response rating (crop injury, 0 = no effect, 100 = complete kill) at 500 g/ha: 0%

## CCCc1nc(-c2ccc(F)cc2)nn1Cc1ccnc(C(F)(F)F)c1 [Compound 6, 4-[[3-(4-fluorophenyl)-5-propyl-1H-1,2,4-triazol-1-yl]methyl]-2-(trifluoromethyl)pyridine]
Corn [3]; 125 g ai/ha
  Plant response rating (scale of 0 to 100 where 0 is no effect and 100 is complete control): 50
Corn [3]; 250 g ai/ha
  Plant response rating (scale of 0 to 100 where 0 is no effect and 100 is complete control): 50
Corn [3]; 31 g ai/ha
  Corn plant response rating (0 to 100): 15
Corn [3]; 62 g ai/ha
  Corn plant response rating (0 to 100): 35
Corn [2]
  Corn plant response rating (crop injury, 0 = no effect, 100 = complete kill) at 125 g/ha: 20%
  Corn plant response rating (crop injury, 0 = no effect, 100 = complete kill) at 500 g/ha: 30%
lambsquarters; 125 g ai/ha
  Plant response rating (scale of 0 to 100 where 0 is no effect and 100 is complete control): 98
lambsquarters; 250 g ai/ha
  Plant response rating (scale of 0 to 100 where 0 is no effect and 100 is complete control): 98
lambsquarters; 31 g ai/ha
  Lambsquarters plant response rating (0 to 100): 98
lambsquarters; 62 g ai/ha
  Lambsquarters plant response rating (0 to 100): 98
Oilseed rape [4]; 125 g ai/ha
  Plant response rating (scale of 0 to 100 where 0 is no effect and 100 is complete control): 100
Oilseed rape [4]; 250 g ai/ha
  Plant response rating (scale of 0 to 100 where 0 is no effect and 100 is complete control): 100
Oilseed rape [4]; 31 g ai/ha
  Oilseed Rape plant response rating (0 to 100): 70
Oilseed rape [4]; 62 g ai/ha
  Oilseed Rape plant response rating (0 to 100): 100
